Broadly, the IC50 is the concentration that inhibits the measured activity by half.

The text below walks through data of patent publication US20090239841A1, “Diaryl Ureas as CB1 Antagonists” (priority 2004, published 2009).

T1 sequence (P21554 whole entry): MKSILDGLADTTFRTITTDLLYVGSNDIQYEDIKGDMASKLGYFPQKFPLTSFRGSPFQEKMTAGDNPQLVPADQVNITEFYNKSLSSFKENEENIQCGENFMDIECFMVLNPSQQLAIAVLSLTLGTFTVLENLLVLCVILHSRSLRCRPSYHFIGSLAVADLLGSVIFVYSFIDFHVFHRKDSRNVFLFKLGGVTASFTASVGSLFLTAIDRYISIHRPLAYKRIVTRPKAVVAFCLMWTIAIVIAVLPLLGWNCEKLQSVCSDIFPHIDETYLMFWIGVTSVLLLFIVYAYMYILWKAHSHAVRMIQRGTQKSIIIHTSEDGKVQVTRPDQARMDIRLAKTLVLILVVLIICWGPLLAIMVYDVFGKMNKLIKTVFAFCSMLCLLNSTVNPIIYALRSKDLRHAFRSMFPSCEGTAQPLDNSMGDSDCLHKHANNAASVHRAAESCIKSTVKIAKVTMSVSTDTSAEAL

This experiment addresses T1, hCB1 (Homo sapiens, UniProt P21554).
T1 construct: made in house; host or cells: Sf9 insect cells (baculovirus), P2 membranes
Nature of the experiment: Agonist-induced GTP binding (GTPγ35S) assay at CB1, Example 8. The format is biochemical. To be noted: Table II; IC50 at CB1, GTP binding with 1 nM CP55,940; read-out: IC50. The procedure, abridged:
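Membranes from Sf9 cells co-expressing hCB1 and heterotrimeric G-protein (10 μg protein) in Tris pH 7.4 buffer with 5 μM GDP. Test compounds (10^−10–10^−5 M) competed against 1 nM CP55,940 with […] GTPγ35S, 60 min at room temperature. Filter-bound radioactivity by scintillation, expressed as percent above basal.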
Consider `CCOC(=O)c1cccc(NC(=O)Nc2ccc(OC(F)F)cc2)c1` [Compound 148, ethyl 3-[({[4-(difluoromethoxy)phenyl]amino}carbonyl)amino]benzoate], for which the concentration for half-maximal inhibition (IC50) is less than 2000 nM.

Regarding `O=C(Nc1ccc(OC(F)F)cc1)Nc1cccnc1Cl` [Compound 149, N-(2-chloropyridin-3-yl)-N′-[4-(difluoromethoxy)phenyl]urea], the IC50 is less than 2000 nM. `Cc1ccnc(NC(=O)Nc2ccc(OC(F)F)cc2)c1` [Compound 151, N-[4-(difluoromethoxy)phenyl]-N′-(4-methylpyridin-2-yl)urea]: the concentration for half-maximal inhibition (IC50) is less than 2000 nM. With `CCc1ccc(NC(=O)Nc2ccc(F)c(C#N)c2)cc1` [Compound 152, N-(3-cyano-4-fluorophenyl)-N′-(4-ethylphenyl)urea], the half-inhibitory concentration (IC50) is less than 2000 nM.

Take `CCc1ccc(NC(=O)Nc2ccc(Cl)nc2)cc1` [Compound 153, N-(6-chloropyridin-3-yl)-N′-(4-ethylphenyl)urea]: the concentration for half-maximal inhibition (IC50) is less than 2000 nM. Consider `CCCc1ccc(NC(=O)Nc2cccc(C)c2)cc1` [Compound 154, N-(3-methylphenyl)-N′-(4-propylphenyl)urea], for which the concentration for half-maximal inhibition (IC50) is less than 2000 nM. Turning to `CCCCc1ccc(NC(=O)Nc2cccc(C)c2)cc1` [Compound 155, N-(4-butylphenyl)-N′-(3-methylphenyl)urea], the IC50 is less than 2000 nM. For the compound `Cc1cccc(NC(=O)Nc2cccc(OC(C)C)c2)c1` [Compound 156, N-(3-isopropoxyphenyl)-N′-(3-methylphenyl)urea], the IC50 was less than 2000 nM. The result for `Cc1ccc(NC(=O)Nc2ccc(C(C)C)cc2)cc1` [Compound 157, N-(4-isopropylphenyl)-N′-(4-methylphenyl)urea] reads less than 2000 nM.

For `CCOc1ccc(NC(=O)Nc2cccc(C)c2)cc1` [Compound 158, N-(4-ethoxyphenyl)-N′-(3-methylphenyl)urea], the half-maximal inhibitory concentration (IC50) is less than 2000 nM. The result for `CCCOc1ccc(NC(=O)Nc2cccc(C)c2)cc1` [Compound 159, N-(3-methylphenyl)-N′-(4-propoxyphenyl)urea] reads less than 2000 nM; that for `Cc1ccc(NC(=O)Nc2ccc(C)c(F)c2)cc1` [Compound 160, N-(3-fluoro-4-methylphenyl)-N′-(4-methylphenyl)urea], less than 2000 nM; that for `O=C(Nc1ccccc1)Nc1ccc2c(c1)CCC2` [Compound 161, N-(2,3-dihydro-1H-inden-5-yl)-N′-phenylurea], less than 2000 nM. On to `Cc1cccc(NC(=O)Nc2ccc(N3CCOCC3)c(Cl)c2)c1` [Compound 162, N-(3-chloro-4-morpholin-4-ylphenyl)-N′-(3-methylphenyl)urea], for which the half-inhibitory concentration (IC50) is less than 2000 nM. For the compound `Cc1cccc(NC(=O)Nc2cccc(-c3ccnc(C)n3)c2)c1` [Compound 163, N-(3-methylphenyl)-N′-[3-(2-methylpyrimidin-4-yl)phenyl]urea], the IC50 was less than 2000 nM. Regarding `Cc1ccc(NC(=O)Nc2cccc(-c3ccnc(C)n3)c2)cc1` [Compound 164, N-(4-methylphenyl)-N′-[3-(2-methylpyrimidin-4-yl)phenyl]urea], the IC50 was less than 2000 nM. With `Cc1cccc(NC(=O)Nc2ccc(-n3cnc(Cl)c3Cl)cc2)c1` [Compound 165, N-{4-(4,5-dichloro-1H-imidazol-1-yl)phenyl]-N′-(3-methylphenyl)urea], the IC50 is less than 2000 nM.

In the case of `Cc1ccc(NC(=O)Nc2ccc(-n3cnc(Cl)c3Cl)cc2)cc1` [Compound 166, N-[4-(4,5-dichloro-1H-imidazol-1-yl)phenyl]-N′-(4-methylphenyl)urea], the IC50 was less than 2000 nM. To `O=C(Nc1ccccc1)Nc1ccc(N2CCCCC2)cc1` [Compound 167, N-phenyl-N′-(4-piperidin-1-ylphenyl)urea] belongs less than 2000 nM. Turning to `Cc1cccc(NC(=O)Nc2ccc(N3CCCCC3)cc2)c1` [Compound 168, N-(3-methylphenyl)-N′-(4-piperidin-1-ylphenyl)urea], the IC50 was less than 2000 nM. As to `Cc1ccc(NC(=O)Nc2ccc(N3CCCCC3)cc2)cc1` [Compound 169, N-(4-methylphenyl)-N′-(4-piperidin-1-ylphenyl)urea], the IC50 was less than 2000 nM. In the case of `Cc1ccc(NC(=O)Nc2cc3ccccc3c(Br)n2)cc1` [Compound 170, N-(1-bromoisoquinolin-3-yl)-N′-(4-methylphenyl)urea], the IC50 is less than 2000 nM. On to `Cc1ccc(NC(=O)Nc2ccc(C)cc2)cc1` [Compound 171, N,N′-bis(4-methylphenyl)urea], for which the IC50 is less than 2000 nM. The result for `Cc1ccc(NC(=O)Nc2ccc(F)cc2)cc1` [Compound 172, N-(4-fluorophenyl)-N′-(4-methylphenyl)urea] reads less than 2000 nM. To `Cc1ccc(NC(=O)Nc2cccc(F)c2)cc1` [Compound 173, N-(3-fluorophenyl)-N′-(4-methylphenyl)urea] belongs less than 2000 nM; to `CCc1cccc(NC(=O)Nc2ccc(C)cc2)c1` [Compound 174, N-(3-ethylphenyl)-N′-(4-methylphenyl)urea], less than 2000 nM. The result for `CCc1ccc(NC(=O)Nc2ccc(F)cc2)cc1` [Compound 175, N-(4-ethylphenyl)-N′-(4-fluorophenyl)urea] reads less than 2000 nM; that for `CC(C)c1ccc(NC(=O)Nc2ccc(F)cc2)cc1` [Compound 176, N-(4-fluorophenyl)-N′-(4-isopropylphenyl)urea], less than 2000 nM. With `CCCc1ccc(NC(=O)Nc2cccc(F)c2)cc1` [Compound 177, N-(3-fluorophenyl)-N′-(4-propylphenyl)urea], the IC50 was less than 2000 nM. `CCCc1ccc(NC(=O)Nc2ccc(F)cc2)cc1` [Compound 178, N-(4-fluorophenyl)-N′-(4-propylphenyl)urea]: the IC50 was less than 2000 nM. With `CCc1ccc(NC(=O)Nc2cccc(CC)c2)cc1` [Compound 179, N-(3-ethylphenyl)-N′-(4-ethylphenyl)urea], the half-inhibitory concentration (IC50) is less than 2000 nM. The result for `CCc1ccc(NC(=O)Nc2cccc(Cl)c2)cc1` [Compound 180, N-(3-chlorophenyl)-N′-(4-ethylphenyl)urea] reads less than 2000 nM; that for `CCc1ccc(NC(=O)Nc2ccc(C(C)C)cc2)cc1` [Compound 181, N-(4-ethylphenyl)-N′-(4-isopropylphenyl)urea], less than 2000 nM; that for `CC(C)c1ccc(NC(=O)Nc2ccc(Cl)cc2)cc1` [Compound 182, N-(4-chlorophenyl)-N′-(4-isopropylphenyl)urea], less than 2000 nM.

As for `CCCc1ccc(NC(=O)Nc2cccc(CC)c2)cc1` [Compound 183, N-(3-ethylphenyl)-N′-(4-propylphenyl)urea], the IC50 is less than 2000 nM.

On to `CCCc1ccc(NC(=O)Nc2cccc(Cl)c2)cc1` [Compound 184, N-(3-chlorophenyl)-N′-(4-propylphenyl)urea], for which the IC50 is less than 2000 nM. As to `CCCc1ccc(NC(=O)Nc2ccc(Cl)cc2)cc1` [Compound 185, N-(4-chlorophenyl)-N′-(4-propylphenyl)urea], the 50% inhibitory concentration (IC50) was less than 2000 nM.

As for `Cc1ccc(NC(=O)Nc2cccc(C#N)c2)cc1` [Compound 186, N-(3-cyanophenyl)-N′-(4-methylphenyl)urea], the IC50 is less than 2000 nM. Take `CC(=O)c1ccc(NC(=O)Nc2ccc(C)cc2)cc1` [Compound 187, N-(4-acetylphenyl)-N′-(4-methylphenyl)urea]: the half-maximal inhibitory concentration (IC50) is less than 2000 nM. Consider `CC(=O)c1ccc(NC(=O)Nc2cccc(F)c2)cc1` [Compound 188, N-(4-acetylphenyl)-N′-(3-fluorophenyl)urea], for which the IC50 is less than 2000 nM. Turning to `CC(=O)c1ccc(NC(=O)Nc2ccc(F)cc2)cc1` [Compound 189, N-(4-acetylphenyl)-N′-(4-fluorophenyl)urea], the IC50 is less than 2000 nM. For the compound `CCc1cccc(NC(=O)Nc2ccc(C(C)=O)cc2)c1` [Compound 190, N-(4-acetylphenyl)-N′-(3-ethylphenyl)urea], the concentration for half-maximal inhibition (IC50) is less than 2000 nM. `CC(=O)c1ccc(NC(=O)Nc2cccc(Cl)c2)cc1` [Compound 191, N-(4-acetylphenyl)-N′-(3-chlorophenyl)urea]: the IC50 was less than 2000 nM. On to `CC(=O)c1ccc(NC(=O)Nc2ccc(Cl)cc2)cc1` [Compound 192, N-(4-acetylphenyl)-N′-(4-chlorophenyl)urea], for which the IC50 was less than 2000 nM. The result for `CC(C)c1ccc(NC(=O)Nc2ccc(C#N)cc2)cc1` [Compound 193, N-(4-cyanophenyl)-N′-(4-isopropylphenyl)urea] reads less than 2000 nM; that for `CC(C)c1ccc(NC(=O)Nc2cccc(C#N)c2)cc1` [Compound 194, N-(3-cyanophenyl)-N′-(4-isopropylphenyl)urea], less than 2000 nM. Take `CC(=O)c1cccc(NC(=O)Nc2ccc(C(C)C)cc2)c1` [Compound 195, N-(3-acetylphenyl)-N′-(4-isopropylphenyl)urea]: the IC50 was less than 2000 nM.

For the compound `CC(=O)c1ccc(NC(=O)Nc2ccc(C(C)C)cc2)cc1` [Compound 196, N-(4-acetylphenyl)-N′-(4-isopropylphenyl)urea], the IC50 was less than 2000 nM.

`CCCc1ccc(NC(=O)Nc2ccc(C#N)cc2)cc1` [Compound 197, N-(4-cyanophenyl)-N′-(4-propylphenyl)urea]: the concentration for half-maximal inhibition (IC50) was less than 2000 nM. On to `CCCc1ccc(NC(=O)Nc2cccc(C#N)c2)cc1` [Compound 198, N-(3-cyanophenyl)-N′-(4-propylphenyl)urea], for which the IC50 was less than 2000 nM. To `CCCc1ccc(NC(=O)Nc2cccc(C(C)=O)c2)cc1` [Compound 199, N-(3-acetylphenyl)-N′-(4-propylphenyl)urea] belongs less than 2000 nM; to `CCCc1ccc(NC(=O)Nc2ccc(C(C)=O)cc2)cc1` [Compound 200, N-(4-acetylphenyl)-N′-(4-propylphenyl)urea], less than 2000 nM; to `CC(=O)c1ccc(NC(=O)Nc2cccc(Br)c2)cc1` [Compound 201, N-(4-acetylpheny-)-N′-(3-bromophenyl)urea], less than 2000 nM.

`CCOc1cccc(NC(=O)Nc2ccc(C)cc2)c1` [Compound 202, N-(3-ethoxyphenyl)-N′-(4-methylphenyl)urea]: the IC50 is less than 2000 nM.
